# Results reported in patent publication EP4782453A1 (Beyang Therapeutics Co., Ltd., priority 2023, dated 2025).
# Columns and labels:
# Assay type in all cases: cell-based
# [1] = system: MV-4-11 (carrying MLL-AF4); test: Inhibition of proliferation of human tumor cells (Alamar Blue, 7 days), MV-4-11; settings: Homo sapiens, MV4-11, 168 h, MV-4-11 cells (carrying MLL-AF4), method calls the value GI50
# How it was run: (§1)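 Cells seeded at 4,000/well (MV-4-11, MOLM-13) or 3,000/well (KG-1a) in serum-supplemented IMDM or RPMI-1640, 37°C, 5% CO2, then exposed to 3- or 4-fold compound dilutions in duplicate for 7 days. Alamar Blue fluorescence read; GI50 derived against Day 7 0.1% DMSO (high) and Day 0 (low) controls.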
# [2] = system: MEIS1 gene expression; test: Inhibition of MEIS1 gene expression in human tumor cells (qRT-PCR), OCI-AML3; settings: OCI-AML-3, OCI-AML3 (carrying NPM1c), 48 hours of incubation, relative MEIS1 gene expression vs GAPDH
# Excerpt: Experimental Example 3: Evaluation of Inhibitory Activity of Compounds Against MEISI Gene Expression in Human Tumor Cells
# The effect of test samples on MEIS1 gene expression in vitro cultured human leukemia cells MV-4-11 (carrying MLL-AF4), MOLM-13 (carrying MLL-AF9), and OCI-AML3 (carrying NPM1c) was studied.
# • Human acute lymphoblastic leukemia cells MV-4-11, purchased from American Type Culture Collection, Catalog Number: CRL-9591; • Human acute myeloid leukemia cells MOLM-13, purchased from COBIOER BIOSCIENCES CO., LTD, Catalog Number: CBP60678; • Human acute myeloid leukemia cells OCI-AML3, purchased from COBIOER BIOSCIENCES CO., LTD, Catalog Number: CBP60817; • MEIS1 Primer/Probe, purchased from IDT, Catalog Number: 40831613; and • GAPDH Primer/Probe, purchased from IDT, Catalog Number: 22214836.
# MV-4-11 cells were cultured in an IMDM medium containing 10% fetal bovine serum, or MOLM-13 and OCI-AML3 cells were cultured in an RPMI-1640 medium containing 20% fetal bovine serum, each supplemented with 100 U·mL^-1 penicillin and 100 µg·mL^-1 streptomycin. These cells were cultured at 37°C with 5% CO2. The suspensions of individual cell lines were prepared in their respective media and seeded into 48-well plates at a density of 100,000 cells/well. On the day of the experiment, a compound stock solution was diluted in a 6-fold gradient using DMSO. Each gradient-diluted stock solution was then further diluted 250-fold with a complete medium to prepare a series of working solutions at different concentrations. Next, 250 µL of working solution (containing the complete medium with a 2-fold serial concentration of the test compound or a positive control compound, or containing a control complete medium) was added to each well. After 48 hours of incubation, cells from the 48-well plate were collected into 1 mL centrifuge tubes, centrifuged at 1000 rpm for 5 minutes, and the complete medium was removed. Cells were washed twice with 1 mL PBS and centrifuged to remove PBS. Total RNA was extracted using the RNeasy Mini Kit (250) (QIAGEN, 74106). The threshold cycle (Ct) value for gene expression was determined using the HiScript II U+ One Step qRT-PCR Probe Kit (Vazyme) (Vazyme, Q223-01), with 3 replicates per sample. The prepared reaction mixture was placed in an ABI 7500 real-time PCR instrument, and the reaction proceeded following the procedures below. [formula]
# Next, for the relative MEIS1 gene expression, the concentration (EC50) that inhibits 50% of relative MEIS1 gene expression was calculated using GraphPad Prism 8 software.
# [3] = system: KG-1a (wild-type MLL); test: Inhibition of proliferation of human tumor cells (Alamar Blue, 7 days), KG-1a control cell line; settings: 168 h, KG-1a cells (wild-type MLL, control cell line), method calls the value GI50
# How it was run: as §1
smiles,measurement,setting,value
"CCN(C(=O)c1cc(F)ccc1-c1cc(C2CN([C@H](CCCN3CCN(C)CC3)C(C)C)C2)cn2c(C)ncc12)C(C)C [Example 310-2, N-ethyl-5-fluoro-2-(3-methyl-6-{1-[(3R)-2-methyl-6-(4-methylpiperazin-1-yl)hexan-3-yl]azacyclobutan-3-yl}imidazo[1,5-a]pyridin-8-yl)-N-(isopropyl)benzamide]",IC50,[1],0.97 nM
same,EC50,[2],12 nM
"CCN(C(=O)c1cc(F)ccc1-c1cc(C2(F)CN(C(=O)C3NC4CCC3CC4)C2)cn2c(C)ncc12)C(C)C [Example 75, N-ethyl-5-fluoro-2-(6-{3-fluoro-1-[(1R,3S,4S)-2-azabicyclo[2.2.2]octan-3-carbonyl]azacyclobutan-3-yl}-3-methylimidazo[1,5-a]pyridin-8-yl)-N-(isopropyl) benzamide]",IC50,[3],20000 nM
same,IC50,[1],25 nM
CCN(C(=O)c1cc(F)ccc1-c1cc(C2CN([C@@H](C)C3CCN(C(=O)CO)CC3)C2)cn2c(C)nc(F)c12)C(C)C [Example 284-2],IC50,[1],1.5 nM
same,EC50,[2],5.8 nM
CNC(=O)N1CCC([C@H](C)N2CC(c3cc(-c4ccc(F)cc4C(=O)N4CCOC[C@H]4C)c4c(F)nc(C)n4c3)C2)CC1 [Example 264-2],IC50,[3],20000 nM
same,IC50,[1],4.7 nM
CCN(C(=O)c1cc(F)ccc1-c1cc(C2CN([C@H](CCCN3C4COCC3C4)C(C)C)C2)cn2c(C)ncc12)C(C)C [Example 423],IC50,[1],1.2 nM
same,EC50,[2],6.1 nM
"Cc1nc(F)c2c(-c3ccc(F)cc3C(=O)N3CCOC[C@H]3C)cc(C3CN(C(CC[C@@H]4COCCN4)C(C)C)C3)cn12 (stereo partly drawn) [Example 371, (3R)-4-{5-fluoro-2-[1-fluoro-3-methyl-6-(1-{4-methyl-1-[(3R)-morpholin-3-yl]pentan-3-yl}azacyclobutan-3-yl)imidazo[1,5-a]pyridin-8-yl]benzoyl}-3-methylmorpholine]",IC50,[3],> 20000 nM
CCN(C(=O)c1cc(F)ccc1-c1cc(C2CCN(Cc3ccc(-c4cc(OC)c(OC)nn4)cc3)C2)cn2c(C)ncc12)C(C)C (stereo not drawn) [Example 83],IC50,[3],7400 nM
same,IC50,[1],5.5 nM
COCCN(C)CCCC(C(C)C)N1CC(c2cc(-c3ccc(F)cc3C(=O)N3CCOCC3C)c3cnn(C)c3c2)C1 (stereo not drawn) [Example 185],IC50,[3],20000 nM
same,IC50,[1],26 nM
"COCCN(C)CCC[C@H](C(C)C)N1CC(c2cc(-c3ccc(F)cc3C(=O)N3[C@H](C)COC[C@H]3C)c3cnn(C)c3c2)C1 [Example 186-2, [(4R)-4-[3-(4-{2-[(3R,5R)-3,5-dimethylmorpholin-4-carbonyl]-4-fluorophenyl}-1-methyl-1H-indazol-6-yl)azacyclobutan-1-yl]-5-methylhexyl](2-methoxyethyl)methylamine]",IC50,[3],20000 nM
same,IC50,[1],4.3 nM
"CCN(C(=O)c1cc(F)ccc1-c1cc(C2CN([C@H](CCCN3CCN(C(C)=O)CC3)C(C)C)C2)cn2c(C)ncc12)C(C)C [Example 311-2, 2-(6-{1-[(3R)-6-(4-acetylpiperazin-1-yl)-2-methylhexan-3-yl]azacyclobutan-3-yl}-3-methylimidazo[1,5-a]pyridin-8-yl)-N-ethyl-5-fluoro-N-(isopropyl)benzamide]",IC50,[1],4.7 nM
same,EC50,[2],23 nM
"Cc1nc(F)c2c(-c3ccc(F)cc3C(=O)N3CCOC[C@H]3C)cc(C3CN([C@H](CO[C@@H]4CCCN(C)C4)C(C)C)C3)cn12 [Example 297-1, (3R)-4-[5-fluoro-2-(1-fluoro-3-methyl-6-{1-[(2S)-3-methyl-1-{[(3R)-1-methylpiperidin-3-yl]oxy}butan-2-yl]azacyclobutan-3-yl}imidazo[1,5-a]pyridin-8yl)benzoyl]-3-methylmorpholine]",IC50,[1],12 nM
same,EC50,[2],34 nM
"Cc1ncc2c(-c3ccc(F)cc3C(=O)N3CCOC[C@H]3C)cc(C3CN([C@H](CCCN4CCN(C)CC4)C(C)C)C3)cn12 [Example 323-2, (3R)-4-[5-fluoro-2-(3-methyl-6-{1-[(3R)-2-methyl-6-(4-methylpiperazin-1-yl)hexan-3-yl]azacyclobutan-3-yl}imidazo[1,5-a]pyridin-8-yl)benzoyl]-3-methylmorpholine]",IC50,[1],2.4 nM
same,EC50,[2],17 nM
CCS(=O)(=O)N[C@H]1CC[C@H](CN2CC(c3cc(-c4ccc(F)cc4C(=O)N(CC(F)F)C(C)C)c4cnc(C)n4c3)C2)CC1 [Example 138],IC50,[3],20000 nM
same,IC50,[1],3 nM
CCN(C(=O)c1cc(F)ccc1-c1cc(C2CN(C[C@H]3CC[C@H](NS(=O)(=O)CC)CC3)C2)cn2c(C)nc(F)c12)C(C)C [Example 137],IC50,[1],4.7 nM
Cc1nc(F)c2c(-c3ccc(F)cc3C(=O)N3CCOC[C@H]3C)cc(C3CN([C@H](CCCN4CCN(C5CC5)CC4)C(C)C)C3)cn12 [Example 350],IC50,[3],12000 nM
CO[C@H]1CCCN(CCC[C@H](C(C)C)N2CC(c3cc(-c4ccc(F)cc4C(=O)N4CCOC[C@H]4C)c4c(F)nc(C)n4c3)C2)C1 [Example 306],IC50,[3],20000 nM
same,IC50,[1],2.8 nM
"COCCN(C)CCCC(C(C)C)N1CC(c2cc(-c3ccc(F)cc3C(=O)N(CC(F)F)C(C)C)c3c(F)nc(C)n3c2)C1 (stereo not drawn) [Example 142, N-(2,2-difluoroethyl)-5-fluoro-2-[1-fluoro-6-(1-{6-[(2-methoxyethyl)(methyl)amino]-2-methylhexan-3-yl}azacyclobutan-3-yl)-3-methylimidazo[1,5-a]pyridin-8-yl]-N-(isopropyl)benzamide]",IC50,[3],3600 nM
same,IC50,[1],2.2 nM
CCN(C(=O)c1cc(F)ccc1-c1cc(C2CN([C@H](CCCN3CCN(C)CC3)C(C)C)C2)cn2c(C)nc(F)c12)C(C)C [Example 312-2],IC50,[1],0.91 nM
same,EC50,[2],3.9 nM
CC(=O)N1CCC(CN2CC(c3cc(-c4ccc(F)cc4C(=O)N4[C@H](C)COC[C@H]4C)c4c(F)nc(C)n4c3)C2)CC1 [Example 205],IC50,[3],20000 nM
same,IC50,[1],7.4 nM
Cc1nc(F)c2c(-c3ccc(F)cc3C(=O)N3CCOC[C@H]3C)cc(C3CN([C@H](CCCN4CCC(F)CC4)C(C)C)C3)cn12 [Example 314],IC50,[1],1.1 nM
same,EC50,[2],8.9 nM
CO[C@@H]1CCN(CCC[C@H](C(C)C)N2CC(c3cc(-c4ccc(F)cc4C(=O)N4CCOC[C@H]4C)c4c(F)nc(C)n4c3)C2)C1 [Example 202],IC50,[3],20000 nM
same,IC50,[1],1.8 nM
"CCS(=O)(=O)N[C@H]1CC[C@H](CN2CC(c3cc(-c4ccc(F)cc4C(=O)N4CCOC[C@H]4C)c4cnc(C)n4c3)C2)CC1 [Example 134, N-[(1r,4r)-4-{[3-(8-{4-fluoro-2-[(3R)-3-methylmorpholin-4-carbonyl]phenyl}-3-methylimidazo[1,5-a]pyridin-6-yl)azacyclobutan-1-yl]methyl}cyclohexyl]ethan-1-sulfonamide]",IC50,[3],20000 nM
same,IC50,[1],26 nM
CO[C@@H]1CCCN(CCC[C@H](C(C)C)N2CC(c3cc(-c4ccc(F)cc4C(=O)N4CCOC[C@H]4C)c4c(F)nc(C)n4c3)C2)C1 [Example 305],IC50,[3],20000 nM
same,IC50,[1],3.4 nM
Cc1nc(F)c2c(-c3ccc(F)cc3C(=O)N3[C@H](C)COC[C@H]3C)cc(C3CN(CC4CCOCC4)C3)cn12 [Example 208],IC50,[3],20000 nM
same,IC50,[1],6.6 nM
Cc1nc(F)c2c(-c3ccc(F)cc3C(=O)N3CCOCC3C)cc(C3CN(C(CCCN4CCCC(O)C4)C(C)C)C3)cn12 (stereo not drawn) [Example 292],IC50,[3],20000 nM
same,IC50,[1],2.4 nM
"CCS(=O)(=O)N[C@H]1CC[C@H](CN2CC(c3cc(-c4ccc(F)cc4C(=O)N4[C@H](C)COC[C@H]4C)c4c(F)nc(C)n4c3)C2)CC1 [Example 197, N-[(1r,4r)-4-{[3-(8-{2-[(3R,5R)-3,5-dimethylmorpholin-4-carbonyl]-4-fluorophenyl}-1-fluoro-3-methylimidazo[1,5-a]pyridin-6-yl)azacyclobutan-1-yl]methyl}cyclohexyl]ethan-1-sulfonamide]",IC50,[3],20000 nM
same,IC50,[1],4 nM
CCNC(=O)N1CCC(CN2CC(c3cc(-c4ccc(F)cc4C(=O)N4CCOC[C@H]4C)c4c(F)nc(C)n4c3)C2)CC1 [Example 261],IC50,[3],20000 nM
same,IC50,[1],9.6 nM
